Assay results published in patent US6342515B1, “Remedy for neurodegenerative diseases” (Dainippon Pharmaceutical Co., Ltd., priority 1997, dated 2002).
Marks after values point to notes of the source that are not given here.

Columns and labels:
C57 black male mice [1] = assay: Inhibitory effect on MPTP-induced dopaminergic neurodegeneration (striatal DA and DOPAC by HPLC); assay type: in vivo, mouse; details: for Inhibitory Rate (%) DA / Inhibitory Rate (%) DOPAC / DA (ng/g tissue) / DOPAC (ng/g tissue): striatum, 24 hours after last MPTP; for DA (ng/g tissue) / DOPAC (ng/g tissue): mean ± standard error; for inhibitory effect on the MPTP-induced reduction in the contents of dopamine and DOPAC in the striatum: po
Experimental: (§1) In each experiment, the contents of monoamine neurotransmitters and metabolites thereof in the striatum were measured by high performance liquid chromatography (HPLC) method. HPLC was carried out using a system consisting of a pump (L-6000, manufactured by Hitachi, Ltd., Japan), an autoinjector, a column (Cosmosil 5C18-A, manufactured by Nacalai Tesque, Inc., Japan; 4.6Ø×250 mm), and an electrochemical detector (ECD-100, manufactured by Eicom Corporation, Japan) under the following conditions.
In addition, the statistical analysis was carried out by Dunnett's multiple comparison test.
(§2) C57 black male mice (11-week-old) were used in the experiment. MPTP hydrochloride was dissolved in a physiological saline solution in a concentration of 3 mg/ml, and the resulting solution was intraperitoneally injected to the mice in a volume of 0.1 ml per 10 g of body weight, i.e., at a dose of 30 mg/kg, once a day for 8 days repetitively. […]
(§3) The striatum excised was homogenized with a 50-fold volume of 0.1 N formic acid:acetone (15:85) containing an internal standard substance (5-hydroxytriptophol; 20 ng/ml), and the mixture was centrifuged under cooling. A fixed amount of the supernatant was collected and evaporated to dryness under stream of nitrogen gas. Then, the resultant was dissolved in a 0.01 N acetic acid and centrifuged, and then the contents of various monoamine neurotransmitters and metabolites thereof in the supernatant were measured by HPLC being equipped with an electrochemical detector.
MPTP hydrochloride was intraperitoneally administered to C57 black male mice (11-week-old) at a dose of 30 mg/kg once a day for 8 days repetitively in the same manner as in Experiment 1. The test drugs, i.e., antiepileptic agents, were suspended in a 0.5% aqueous tragacanth solution, and the resultant was orally administered to the mice in a volume of 0.1 ml per 10 g of body weight 30 minutes prior to the MPTP administration for 8 days. […] The contents of dopamine and a metabolite thereof in the striatum were measured in the same manner as in Experiment 1. […] The dosages for each administration of various antiepileptic agents are shown below. […] Forsch. (Drug Res.), 30, 477 (1980) for other antiepileptic agents were employed, respectively.
The inhibitory rate was calculated from the values in the normal animal group, the vehicle-treated group and the test drug-treated group. The values in Table represent a mean value ± a standard error, and the marks * and ** mean that there is a significant difference from the value of the vehicle-treated group with p<0.05 and p<0.01, respectively.
The perpendicular lines in the figures represent standard errors, and the marks * and ** mean that there is a significant difference from the value of the vehicle-treated group with p<0.05 and p<0.01, respectively.

C57 black mice = details: MPTP hydrochloride 15 mg/kg s.c. once; cited from earlier work
C57 black male mice [2] = assay: Preparation of animal model for Parkinson's disease: striatal monoamine neurotransmitters and metabolites after MPTP; assay type: in vivo, mouse; details: MPTP hydrochloride 30 mg/kg ip once a day for 8 days
Experimental: as §1, §2, §3
The changes in the contents of various neurotransmitters and metabolites thereof 24 hours after the last MPTP administration are shown in FIG. 1. The number of animals in each group is 8, and the perpendicular lines in the figures represent standard errors, and the mark ** means that there is a significant difference from the value of the control group (the group treated with a physiological saline solution) with p<0.01.

[3] = 14-days group (14 days after the last MPTP administration), in words (FIG. 2)
[4] = 24-hours group, in words (Table 1)
[5] = 24 hours after last administration (FIG. 1)
[6] = 100 mg/kg po for 8 days, 100 mg/kg
[7] = 100 mg/kg po for 8 days, listed as zonisamide, 100 mg/kg

Compound: CC(=O)Nc1nnc(S(N)(=O)=O)s1 [AZA, Acetazolamide]
- Inhibitory Rate (%) DA (C57 black male mice [1]; 100 mg/kg po for 8 days): −4.1%
- Inhibitory Rate (%) DOPAC (C57 black male mice [1]; 100 mg/kg po for 8 days): 1.2%
- DA (ng/g tissue) (C57 black male mice [1]; 100 mg/kg po for 8 days): 1803 ± 428 ng/g tissue
- DOPAC (ng/g tissue) (C57 black male mice [1]; 100 mg/kg po for 8 days): 138 ± 23 ng/g tissue

Compound: NC(=O)N1c2ccccc2C=Cc2ccccc21 [CBZ, Carbamazepine]
- inhibitory effect on the MPTP-induced reduction in the contents of dopamine and DOPAC in the striatum (C57 black male mice [1]; [3]): did not show any significant inhibitory effect
- inhibitory effect on the MPTP-induced reduction in the contents of dopamine and DOPAC in the striatum (C57 black male mice [1]; [4]): did not show any significant inhibitory effect
- Inhibitory Rate (%) DA (C57 black male mice [1]; 20 mg/kg po for 8 days): 25.0%
- DA (ng/g tissue) (C57 black male mice [1]; 20 mg/kg po for 8 days): 3087 ± 453 ng/g tissue
- DOPAC (ng/g tissue) (C57 black male mice [1]; 20 mg/kg po for 8 days): 251 ± 36 ng/g tissue
- Inhibitory Rate (%) DA (C57 black male mice [1]; 60 mg/kg po for 8 days): 20.8%
- Inhibitory Rate (%) DOPAC (C57 black male mice [1]; 60 mg/kg po for 8 days): 23.0%
- DA (ng/g tissue) (C57 black male mice [1]; 60 mg/kg po for 8 days): 2894 ± 750 ng/g tissue
- DOPAC (ng/g tissue) (C57 black male mice [1]; 60 mg/kg po for 8 days): 202 ± 52 ng/g tissue
- inhibitory effect on dopamine depletion induced by MPTP (C57 black mice): does not show such effect

Compound: CN1C(=O)CN=C(c2ccccc2)c2cc(Cl)ccc21 [DZP, Diazepam]
- Inhibitory Rate (%) DA (C57 black male mice [1]; 5 mg/kg po for 8 days): 24.3%
- Inhibitory Rate (%) DOPAC (C57 black male mice [1]; 5 mg/kg po for 8 days): 18.3%
- DA (ng/g tissue) (C57 black male mice [1]; 5 mg/kg po for 8 days): 3356 ± 451 ng/g tissue
- DOPAC (ng/g tissue) (C57 black male mice [1]; 5 mg/kg po for 8 days): 208 ± 28 ng/g tissue

Compound: CCC1(C)CC(=O)NC1=O (centres unmarked) [ESM, Ethosuximide]
- Inhibitory Rate (%) DA (C57 black male mice [1]; 600 mg/kg po for 8 days): −18.7%
- Inhibitory Rate (%) DOPAC (C57 black male mice [1]; 600 mg/kg po for 8 days): −12.9%
- DA (ng/g tissue) (C57 black male mice [1]; 600 mg/kg po for 8 days): 1008 ± 182 ng/g tissue
- DOPAC (ng/g tissue) (C57 black male mice [1]; 600 mg/kg po for 8 days): 80 ± 10 ng/g tissue

Compound: Nc1nnc(-c2cccc(Cl)c2Cl)c(N)n1 [LTG, 3,5-diamino-6-(2,3-dichlorophenyl)-1,2,4-triazine]
- Inhibitory Rate (%) DA (C57 black male mice [1]; 30 mg/kg po for 8 days): 51.6%
- Inhibitory Rate (%) DOPAC (C57 black male mice [1]; 30 mg/kg po for 8 days): 34.1%
- DA (ng/g tissue) (C57 black male mice [1]; 30 mg/kg po for 8 days): 4844 ± 676** ng/g tissue
- DOPAC (ng/g tissue) (C57 black male mice [1]; 30 mg/kg po for 8 days): 273 ± 31** ng/g tissue
- inhibitory effect on dopamine depletion induced by MPTP (C57 black mice): show an inhibitory effect

Compound: CN1CC=C(c2ccccc2)CC1 [MPTP, 1-methyl-4-phenyl-1,2,3,6-tetrahydropyridine]
- contents of dopamine (DA), homovanillic acid (HVA) and DOPAC in the striatum (C57 black male mice [2]; [5]): significantly reduced
- contents of noradrenaline (NA), serotonin (5HT), MOPEG and 5HIAA in the striatum (C57 black male mice [2]; [5]): never affected
- reduction in the contents of dopamine and metabolites thereof in the striatum (C57 black male mice [2]; 14 days after last administration (FIG. 2)): irreversible

Compound: CCC1(c2ccccc2)C(=O)NC(=O)NC1=O [PB, Phenobarbital]
- Inhibitory Rate (%) DA (C57 black male mice [1]; 40 mg/kg po for 8 days): 23.5%
- Inhibitory Rate (%) DOPAC (C57 black male mice [1]; 40 mg/kg po for 8 days): 16.3%
- DA (ng/g tissue) (C57 black male mice [1]; 40 mg/kg po for 8 days): 3310 ± 544 ng/g tissue
- DOPAC (ng/g tissue) (C57 black male mice [1]; 40 mg/kg po for 8 days): 200 ± 32 ng/g tissue

Compound: O=C1NC(=O)C(c2ccccc2)(c2ccccc2)N1 [PHT, Phenytoin]
- Inhibitory Rate (%) DA (C57 black male mice [1]; 30 mg/kg po for 8 days): 37.4%
- Inhibitory Rate (%) DOPAC (C57 black male mice [1]; 30 mg/kg po for 8 days): 30.2%
- DA (ng/g tissue) (C57 black male mice [1]; 30 mg/kg po for 8 days): 4073 ± 454* ng/g tissue
- DOPAC (ng/g tissue) (C57 black male mice [1]; 30 mg/kg po for 8 days): 257 ± 30* ng/g tissue
- inhibitory effect on dopamine depletion induced by MPTP (C57 black mice): show an inhibitory effect

Compound: CCCC(CCC)C(=O)[O-].[Na+] [VPA, Sodium valproate]
- Inhibitory Rate (%) DA (C57 black male mice [1]; 800 mg/kg po for 8 days): 17.5%
- Inhibitory Rate (%) DOPAC (C57 black male mice [1]; 800 mg/kg po for 8 days): 13.2%
- DA (ng/g tissue) (C57 black male mice [1]; 800 mg/kg po for 8 days): 2984 ± 468 ng/g tissue
- DOPAC (ng/g tissue) (C57 black male mice [1]; 800 mg/kg po for 8 days): 187 ± 29 ng/g tissue

Compound: NS(=O)(=O)Cc1noc2ccccc12 [ZNS, 3-sulfamoylmethyl-1,2-benzisoxazole]
- inhibitory effect on the MPTP-induced reduction in the contents of dopamine and DOPAC in the striatum (C57 black male mice [1]; [3]): dose-dependent inhibitory effect
- inhibitory effect on the MPTP-induced reduction in the contents of dopamine and DOPAC in the striatum (C57 black male mice [1]; [4]): dose-dependent inhibitory effect
- Inhibitory Rate (%) DA (C57 black male mice [1]; 10 mg/kg po for 8 days): 22.3%
- Inhibitory Rate (%) DOPAC (C57 black male mice [1]; 10 mg/kg po for 8 days): 29.8%
- DA (ng/g tissue) (C57 black male mice [1]; 10 mg/kg po for 8 days): 3797 ± 201* ng/g tissue
- DOPAC (ng/g tissue) (C57 black male mice [1]; 10 mg/kg po for 8 days): 221 ± 11* ng/g tissue
- Inhibitory Rate (%) DA (C57 black male mice [1]; 30 mg/kg po for 8 days): 80.3%
- Inhibitory Rate (%) DOPAC (C57 black male mice [1]; 30 mg/kg po for 8 days): 82.1%
- DA (ng/g tissue) (C57 black male mice [1]; 30 mg/kg po for 8 days): 7373 ± 685** ng/g tissue
- DOPAC (ng/g tissue) (C57 black male mice [1]; 30 mg/kg po for 8 days): 370 ± 27** ng/g tissue
- Inhibitory Rate (%) DA (C57 black male mice [1]; [6]): 97.2%
- Inhibitory Rate (%) DOPAC (C57 black male mice [1]; [6]): 109.1%
- Inhibitory Rate (%) DA (C57 black male mice [1]; [7]): ~100%
- Inhibitory Rate (%) DOPAC (C57 black male mice [1]; [7]): ~100%
- DA (ng/g tissue) (C57 black male mice [1]; 100 mg/kg po for 8 days): 8434 ± 336** ng/g tissue
- DOPAC (ng/g tissue) (C57 black male mice [1]; 100 mg/kg po for 8 days): 447 ± 24** ng/g tissue
